A short description of series [1]: polymorph transformation on stirring in solution. The class given is physicochemical.
A short description of series [2]: relative stability of crystal forms versus temperature. The class given is physicochemical.

Structures are written as SMILES.

This note sets out measurements from patent publication US20080312311A1, “Crystalline forms of 3-(2R-tetrahydrofuryl-methyl)-2-thioxanthine” (ASTRAZENECA AB, priority 2007, published 2008).

For the molecule `O=c1[nH]c(=S)n(C[C@H]2CCCO2)c2nc[nH]c12` [3-(2R-tetrahydrofuryl-methyl)-2-thioxanthine], the “polymorph transformation on stirring in solution” value is “transforms it to polymorph B” in series [1] (stirring in a solution about or above 60° C.) and “transforms it to polymorph A” in series [1] (stirring in solutions about or below 60° C.). Also, the “relative stability of the crystalline form” value in series [2] (at ambient temperature, such as room temperature, Form A versus Form B) is “more stable”; in series [2] (at temperatures over +65° C., Form B versus Form A) it was “more stable”.
